# Measured values published in US20090023801A1, “INHIBITORS OF BETA AMYLOID PRODUCTION” (Wyeth, priority 2007, published 2009).
# Tests used:
# Aβ40 = experiment: Aβ-lowering MSD electrochemiluminescent assay of conditioned media from CHO cells expressing human APP (Aβ40); format: cell-based; conditions: MSD electrochemiluminescent assay, hAPP-REPNL751 CHO cells; read-out: Aβ40 EC50 for inhibition of Aβ40
# Experimental: (§1) The activity of compounds in lowering the generation of Aβ40 and Aβ42, the most abundant forms of beta amyloid, from APP (amyloid precursor protein) was measured in an electrochemiluminescent (ECL) assay of conditioned media from chinese hamster ovary (CHO) cells stably expressing the human amyloid precursor protein (APP) reporter construct, hAPP-REPNL751 (Sughir, R. et al.; J. Biolog. Chem (1992) 267: 25602-25608). Aβ peptides were secreted at high levels into cell culture media by cells carrying the human APP transgene; compounds were tested for their capacity to modulate this production. The Aβ peptide in the conditioned medium was quantitated by a sandwich immunoassay with the MSD ECL detection system. Cell metabolism was measured using a 3-(4,5-dimethylthiazol-2-yl)-5-(3-carboxymethoxypheny)-2-(4-sulfophenyl)-2H-tetrazolium, inner salt (MTS) salt kit (which measures the mitochondrial activity of cells by the bioreduction of Owen's reagent). This assay consists of the following protocol:
# (§2) 1. hAPP-REPNL751CHO cells were seeded into 96 well plates and incubated until about 60-70% confluence.
# (§3) 2. Medium was removed, cells were washed, and fresh serum-free medium (Ultraculture) was put on cells.
# (§4) 3. Compounds were diluted and then added to the cell medium.
# (§5) 4. Cells were incubated, with compounds, for indicated times.
# (§6) 5. Streptavidin coated Meso Scale Discover (MSD) plates (MSD standard MULTI-ARRAY® 96 plate, cat.# P11SA-1) were washed […] with TTBS (Tris-buffered saline, the TWEEN® 20 reagent).
# (§7) 6. 20 μL conditioned medium were removed from the cells and added to the TTBS prewashed MSD plates.
# (§8) 7. Standard curve dilutions of synthetic Aβ40 and Aβ42 were prepared and added to the MSD plates.
# (§9) 8. A reagent mix was prepared in 1% MSD Blocker A (appropriate concentration of biotinylated 6E10 antibody, detection antibodies to Aβ40, Aβ42, and MSD ruthinylated tag antibody).
# (§10) 9. 20 μL reagent mix was distributed to sample plate.
# (§11) 10. Plates were incubated with shaking overnight at 4° C.
# (§12) 11. Plates were washed 3× with TTBS.
# (§13) 12. 150 μL read buffer was added per well (MSD® Read Buffer T, cat#R92TC-2, made 1× with distilled water).
# (§14) 13. Plates were read in a MSD® plate reader within 2 hours.
# (§15) Assays were accepted or rejected based upon specific performance criteria, including regression coefficient of standard curve, adequate signal to noise ratio, sample signals lying within the range of the standard curve, etc.: the specific parameters were established for each tissue type prior to performing an assay, and were included in the full analytical procedure.
# (§16) Plate data from both assays (MTS and MSD® ELISA) were transferred into a Microsoft EXCEL® spreadsheet to determine the toxicity, and inhibition caused by the compounds. Standard curves of Aβ were generated using LSW™ toolbar Hill slope model 42, with 1/y weighting (general sigmoidal curve with Hill slope, a to d; y=(a−d)/(1+(x/c)̂b)+d). Inhibition data were expressed as a percent of the average of the Aβ values in the vehicle treated wells (all values are background subtracted), using LSW™ toolbar Hill Slope model 68 (ligand-receptor binding/sigmoidal, with Hill slope and Bmax to 0; y=Bmax*(1−(x̂n/(K̂n+x̂n))), after raw values were translated/transformed into absolute Aβ values utilizing the standard curve generated as described above (e.g. back calculate absolute Aβ values from the raw values utilizing standard curve). Onboard controls to verify assay performance were checked to assure that amyloid is within linear detection range of the assay, that cells were expressing correctly, and that the MSD itself was performing according to quality control (QC) standards.
# (§17) % Inhibition>50% may be considered a positive response or an interesting result in this assay; EC50 determination were determined.
# (§18) The beta amyloid inhibitory activity of compounds of formula (I) was determined using the MSD ECL assay. Inhibition of Notch processing was measured using the stable transfection reporter assay See, Table 1 below.
# Aβ42 = experiment: Aβ-lowering MSD electrochemiluminescent assay of conditioned media from CHO cells expressing human APP (Aβ42); format: cell-based; conditions: MSD electrochemiluminescent assay, hAPP-REPNL751 CHO cells; read-out: Aβ42 EC50 for inhibition of Aβ42
# Experimental: as §1, §2, §3, §4, §5, §6, §7, §8, §9, §10, §11, §12, §13, §14, §15, §16, §17, §18
# Notch = experiment: Stable transfection Notch reporter assay (HES1-SEAP, P8H6 CHO-K1 cells); format: cell-based; conditions: CHO-K1; stable transfection Notch reporter assay, 48 hours; read-out: Notch EC50 for inhibition of Notch
# Text: A concern with compounds that lower beta amyloid synthesis by targeting the γ-secretase enzyme is that this enzyme also is involved in the cleavage of other substrates besides APP especially the Notch substrate. […] Thus, a selectivity of APP cleavage over Notch cleavage is desired in order to avoid G.I. side effects. The activity of compounds in cleaving Notch can be measured in a whole cell functional Notch assay. This is an assay to determine the effects of compounds on the S3 (γ-secretase like) processing of Notch. […] SEAP transactivation is then detected by luminescent assay. The assay consists of the following protocol:
# • (i) Materials: The P8H6 inducible stable cell line was derived from T-REX™ CHO-K1, stably expressing Tet repressor, Notch (pZX1) and HES1-SEAP (pZX2) reporter constructs. A Wallac 1450 Victor™ Luminescence Counter was used to measure luminescent signal. All other materials and reagents were of highest quality available and were all from commercial sources.
# (ii) Construct Description: • pZX1: Mouse Notch1 with deleted extracellular domain cloned at Hind III/Xho I sites of pcDNA5/TO vector: Ampicillin Resistance for bacteria, hygromycin resistance for cells. • pZX2: Mouse HES1 promoter together with reporter gene SEAP cloned at Not I/Apa I sites of pcDNA3.1 with deletion of CMV promoter.
# (iii) Procedure: • 1. P8H6 cells were grown in Ham's F12 complete growth media containing 10% FBS (reduced tetracycline), 2 mM of L-glutamine, 1 mg/mL of hygromycin, 1 mg/mL of the GENETICIN® antibiotic, 10 μg/mL of Blasticidin and 1% Penicillin-Streptomycin were supplemented with doxycline with final induction concentration of 0.2 μg/mL. The cells were seeded in 96-well tissue culture plate at 8000/well. • 2. Test compounds in 0.2% DMSO/25 mM HEPES buffer were diluted at final working concentration of 20 μM, 6.7 μM, 2.2 μM, 741 nM, 247 nM, 82 nM, 27 nM, 9 nM and 3 nM. Diluted compounds then were added to P8H6 cells in 96-well tissue culture plates. For vehicle samples, the same volume of 0.2% DMSO/25 mM HEPES buffer was added. • 3. Cells were incubated at 37° C., 5% CO2 for 48 hours. • 4. SEAP levels in the conditioned media were assessed using the Clontech GREATESCAPE™ SEAP Chemiluminescence detection kit according to the manufacturer's instruction. Briefly, 15 μL of conditioned media were mixed with 45 μL of the dilution buffer and incubated at 65° C. for 45 minutes. After cooling, assay buffer was added and the sample was incubated with the CSPD® substrate. • 5. Luminescence was measured in a Wallac 1450 VICTOR™ luminescence counter.
# EC50 was the compound concentration that was estimated to provide a 50% reduction of maximum response in Notch induced SEAP levels. An EC50 from a given assay may only be used for averaging if it has met the following criteria: • 1. There is a lower dose in the assay which gives a % Notch Activity>60% (bracketing lower dose). • 2. There is a higher dose in the assay which gives a % Notch Activity<30% (bracketing higher dose), and the maximum inhibition is reached (e.g., a given compound might achieve 80% inhibition (% Notch activity is about 20%) over several doses, and therefore 20% would be considered the maximum inhibition.
# Data were analyzed in Microsoft EXCEL® format. EC50 was calculated by LSW using sigmoidal inhibition from B0 to nsb model (model 59). Each assay plate contained a dose response curve for the reference compound 5-chloro-N-[(1S,2R)-2-ethyl-4,4,4-trifluoro-1-(hydroxymethyl)butyl]thiophene-2-sulfonamide. This compound is discussed in International Patent Publication No. WO 2004/092155. The following data is not shown in that publication.
# as §18
EC50 (Aβ40) [µM],EC50 (Aβ42) [µM],EC50 (Notch) [µM],melting point [°C],SMILES
1.33,1.9,> 20,129 to 131,"O=S(=O)(N[C@H](CO)[C@@H](c1ccccc1)C(F)(F)F)c1ccc(Cl)cc1 [Example 6, 4-Chloro-N-[(1S,2R)-3,3,3-trifluoro-1-(hydroxymethyl)-2-phenylpropyl]benzenesulfonamide]"
0.187,0.178,> 20,,"O=S(=O)(N[C@H](CO)[C@@H](c1ccc(F)cc1)C(F)(F)F)c1ccc(Cl)s1 (relative stereo) [Example 9, 5-Chloro-N-[(1S*,2R*)-3,3,3-trifluoro-2-(4-fluorophenyl)-1-(hydroxymethyl)propyl]thiophene-2-sulfonamide]"
7.52,7.21,> 20,,"O=S(=O)(N[C@H](CO)[C@H](c1ccccc1)C(F)(F)F)c1ccc(Cl)s1 (stereo in doubt) [Example 5, 5-Chloro-N-[(1S*,2S*)-3,3,3-trifluoro-1-hydroxymethyl-2-phenylpropyl]thiophene-2-sulfonamide]"
